Consider six compounds from patent publication US20200003760A1, “IN-VITRO METHODS FOR CLASSIFYING DRUGS ACCORDING TO THEIR POTENTIAL TO CAUSE LIVER CELL INJURY” (Board of Trustees of Michigan State University, priority 2018, published 2020).

For data set [1] the following is noted: maximal plasma concentration after pharmacologic dosing in human patients; cited from earlier work.
The subject of data set [2] is HepG2 cells. Put plainly: Point of departure (POD) from censored concentration-response relationships in HepG2 cells. The data set is classed as cell-based, human. The settings on record: censored CRRs, 4-parameter log-logistic model. An excerpt: Partial, or censored, CRRs were then created using concentrations at or below the EC50. Nine CRC models were fit to the partial CRRs for all 24 drugs and compared to identify the best-fitting CRC model overall. Models were compared using Akaike Information Criteria (AIC; Akaike 1973, Burnham & Anderson 2002). The 4-parameter log-logistic model was selected to model censored CRRs for each of the 24 drugs since it provided the best fit (lowest AIC) for the majority of drugs. […] PODs provided a robust measure to characterize each of the CRCs using the low-concentration regions of the CRRs. In addition to POD.DRUG and POD.DRUG+TNF, POD.DIFF (i.e., POD.DRUG−POD.DRUG+TNF) and POD.RATIO (i.e., POD.DRUG/POD.DRUG+TNF) were used as covariates in the logistic regression model developed to classify the drugs according to their IDILI status. […] The horizontal blue line illustrates the mean control value estimated by pooling LDH % responses at the zero concentrations for both CRRs above. The horizontal dashed red line illustrates an upper limit of the pooled control data as the control mean plus 2 control standard deviations. PODs were then calculated for each curve as the effective concentration corresponding to the upper limit of the pooled control data, shown as vertical dashed red lines.

Data set [3] has as its system HepG2 cells. Briefly: Drug/cytokine-induced cytotoxicity (% LDH release) concentration-response in HepG2 cells. The data set is classed as cell-based, human. The settings on record: for R10 / R10 IFN / R10 TNF / R10 TNF/IFN: 10 percent increase in LDH response above min, 0 when D10 = 0; for R10 IFN: with IFN; for R10 TNF: with TNF; for R10 TNF/IFN / EC10 TNF/IFN: with TNF and IFN; for Deltadiff: Delta of drug/TNF curve minus Delta of drug/VEH curve (LDH percentage); for cytotoxic interaction of drug with TNF: TNF 10 ng/ml; for effect of IFN coexposure on the drug/TNF cytotoxic interaction: TNF and IFN 10 ng/ml each; for cytotoxicity of drug on its own (LDH release): absence of cytokines; for TNF change: D10TNF − D10VEH; for EC10 TNF: with TNF 10 ng/ml. Details: key to Deltadiff: LDH release percentage points (drug/TNF Delta minus drug/VEH Delta). The gist of the method:
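Cells at passage 6-16 were treated for 24 hours with drug or vehicle (water or DMSO <0.5%), alone or with TNF (10 ng/ml) and/or IFN (10 ng/ml), after overnight attachment. Cytotoxicity was scored as LDH released into medium; concentrations were expressed as [drug]/Cmax, with four-parameter logistic fits giving EC50, EC10 and R10 (+10 LDH points over baseline).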

The conditions of data set [4]: cited from earlier work; for True classification: IDILI in human patients; for IDILI liability: criteria of Xu et al. (2008).
Data set [5] can be described thus: Logistic regression classification model: probability that a drug is associated with IDILI. The arrangement: species or system human. The settings on record: for Estimated probability: probability that drug is associated with IDILI, covariates Deltadiff, EC50 VEH, EC50 TNF, Delta VEH, Cmax, optimal cutoff 0.46. The text has this:
Classification modeling using defined covariates. In the second phase of analysis, classification models were developed using logistic regression with covariates as independent variables in the analysis and known IDILI classification as the dependent variable. A model selection process was used to determine if a covariate or set of covariates is associated with IDILI liability. Covariates were first evaluated individually to determine how well a particular covariate classified drugs according to IDILI liability, and then covariates were evaluated in combination. Combinations of covariates were selected to maximize the ability of the model to distinguish between drugs associated or not with IDILI. Specifically, covariates that describe changes in efficacy (Delta, Deltadiff, etc.) were paired with covariates that describe changes in potency (EC50, EC10, R10, etc.) to find covariate combinations that led to models that most accurately discriminated between drugs that are and are not associated with IDILI. […] The logistic regression models follow the equation: […]
where ŷi is the calculated (predicted) probability that drug i with a vector of covariates xi is associated with IDILI. The β coefficients (β0, the regression intercept; and βi, the regression slopes for model covariates, xi) were derived from the logistic regression models using 1) combinations of the covariates (xi) generated by concentration-response modeling for each of the 24 drugs evaluated in this study, and 2) the true IDILI classification for the dependent variable yi (i.e., 1 for IDILI+drugs and 0 for IDILI-drugs). […] This occurs when a covariate almost perfectly separates observations into the appropriate categories. […] When separation or quasi-complete separation occurs, use of the standard method (i.e., maximum likelihood estimation) provides biased, unreliable estimates of βi.
Receiver operating characteristic (ROC) analysis. In the third phase of the statistical approach, the classification models, generated as logistic regression models using single covariates or combinations of covariates, were evaluated by ROC analysis to determine which model and corresponding sets of covariates led to the most accurate classification of drugs according to their potential to cause IDILI. An ROC curve was created for each model by graphing the true positive rate (sensitivity; i.e., proportion of drugs correctly classified as associated with IDILI) against the false positive rate (1-specificity; i.e., proportion of drugs incorrectly classified as associated with IDILI) at various probability cutoff thresholds (k). […] An area under the curve (AUC) and confidence interval was computed for each ROC curve (where each logistic regression model has one ROC curve). […] Corresponding to each ROC curve is an optimal threshold value (k*), the threshold yielding the highest point of accuracy on the curve (i.e., the point nearest the point […] on the curve). Thus, each ROC curve has a corresponding AUC and an optimal cutoff (k*) that corresponds to the highest point of accuracy on that ROC curve.

Setting [6] is: Homo sapiens, HepG2, categorical, Delta threshold 10 LDH percentage points, drug alone (VEH), read-out: D10.
The mark [7] stands for this setting: Homo sapiens, HepG2, maximal LDH response, drug alone (VEH), 24 h, read-out: max.
The mark [8] stands for this setting: value corresponding to 10% of Delta, NA = no significant increase.

Read-outs that look alike come from different tables or passages of the source.

Take `N[C@@H]1[C@H]2CN(c3nc4c(cc3F)c(=O)c(C(=O)O)cn4-c3ccc(F)cc3F)C[C@@H]12` [Trovafloxacin]: the peak concentration (Cmax) in data set [1] is 5 µM. Moreover, the “POD.DRUG versus POD.DRUG+TNF” value in data set [2] is recorded as “POD.DRUG occurs at a relatively higher concentration than POD.DRUG+TNF”. For the same compound, in data set [3] (drug alone (VEH)), the R10 was 0 [drug]/Cmax. Moreover, in data set [3], the “R10 IFN” value was 0 [drug]/Cmax, the “R10 TNF” value is 4.8 [drug]/Cmax, the “R10 TNF/IFN” value was 1.2 [drug]/Cmax and the Deltadiff was found to be 27.4. Moreover, in data set [3] (HepG2, 24 h), the “cytotoxic interaction of drug with TNF” value was “TNF significantly enhanced the cytotoxicity”, the “effect of IFN coexposure on the drug/TNF cytotoxic interaction” value was “coexposure to IFN enhanced the cytotoxic interaction” and the “cytotoxicity of drug on its own (LDH release)” value (shortened to “cytotoxicity of drug on its own”) is recorded as “statistically significant increase in LDH release”. The Emax in data set [3] (setting [6]) was < 10%. In data set [3] (setting [7]), the Emax came out at 18.7%. In addition, the TNF change in data set [3] (categorical) turned out to be 1. In data set [3] (setting [8]), the “EC10 TNF” value is 2.3 [drug]/Cmax and the “EC10 TNF/IFN” value was 0.5 [drug]/Cmax.
`CC(=O)[C@]1(O)Cc2c(O)c3c(c(O)c2[C@@H](O[C@H]2C[C@H](N)[C@H](O)[C@H](C)O2)C1)C(=O)c1ccccc1C3=O` [Idarubicin]: in data set [4], the True classification result is listed as “IDILI−” and the IDILI liability entry is reported as “IDILI−”. For the same compound, the peak concentration (Cmax) in data set [1] is 0.02 µM. In addition, the R10 in data set [3] (drug alone (VEH)) was 0 [drug]/Cmax. Further, in data set [3], the “R10 IFN” value was 0 [drug]/Cmax, the “R10 TNF” value was 0 [drug]/Cmax, the “R10 TNF/IFN” value was 0 [drug]/Cmax and the Deltadiff was found to be 0. In addition, the Emax in data set [3] (setting [6]) was < 10%. In data set [3] (setting [7]), the Emax is 13.9%. Also, the TNF change in data set [3] (categorical) is 0. Besides, the Estimated probability in data set [5] is given as 0.1275.
Turning to `NNC(=O)c1ccncc1` [Isoniazid], in data set [4], the True classification entry was “IDILI+” and the IDILI liability result is reported as “IDILI+”. In addition, in data set [1], the peak concentration (Cmax) is 77 µM. Also, in data set [3] (drug alone (VEH)), the R10 was 440.9 [drug]/Cmax. Besides, in data set [3], the “R10 IFN” value was 434.0 [drug]/Cmax, the “R10 TNF” value is 268.1 [drug]/Cmax, the “R10 TNF/IFN” value was 208.7 [drug]/Cmax and the Deltadiff came to 38.8. For the same compound, in data set [3] (HepG2, 24 h), the “cytotoxic interaction of drug with TNF” value is given as “TNF significantly enhanced the cytotoxicity”, the “effect of IFN coexposure on the drug/TNF cytotoxic interaction” value was “coexposure to IFN enhanced the cytotoxic interaction” and the “cytotoxicity of drug on its own” value is “statistically significant increase in LDH release”. Moreover, the D10 (LDH rise of at least 10 points, yes/no) in data set [3] (Homo sapiens, HepG2, categorical, Delta threshold 10 LDH percentage points, drug alone (VEH)) was > 10%. In data set [3] (setting [7]), the Emax is 57.7%. In data set [3] (categorical), the TNF change turned out to be 0. Further, in data set [3] (value corresponding to 10% of Delta (max-min), drug alone (VEH), NA = no significant increase), the EC10 is 427.0 [drug]/Cmax. Also, the “EC10 IFN” value in data set [3] (value corresponding to 10% of Delta, with IFN 10 ng/ml, NA = no significant increase) was 420.5 [drug]/Cmax. In data set [3] (setting [8]), the “EC10 TNF” value is 248.0 [drug]/Cmax and the “EC10 TNF/IFN” value was 169.7 [drug]/Cmax. In addition, the Estimated probability in data set [5] is listed as 0.7562.
Take `Nc1c(CC(=O)O)cccc1C(=O)c1ccc(Br)cc1` [Bromfenac]: in data set [4], the True classification entry is “IDILI+” and the IDILI liability result is “IDILI+”. Moreover, the Cmax in data set [1] is 13.5 µM. In addition, in data set [3] (drug alone (VEH)), the R10 is 0 [drug]/Cmax. Besides, in data set [3], the “R10 IFN” value was 0 [drug]/Cmax, the “R10 TNF” value was 40.6 [drug]/Cmax, the “R10 TNF/IFN” value was 28.9 [drug]/Cmax and the Deltadiff came out at 22.6. Also, in data set [3] (HepG2, 24 h), the “cytotoxic interaction of drug with TNF” value is reported as “synergized with TNF to cause cytotoxicity”, the “effect of IFN coexposure on the drug/TNF cytotoxic interaction” value is given as “coexposure to IFN enhanced the cytotoxic interaction” and the “cytotoxicity of drug on its own” value is reported as “caused no cytotoxicity on their own”. Besides, the Emax in data set [3] (setting [6]) is < 10%. Also, the Emax in data set [3] (setting [7]) stood at 13.8%. Moreover, the TNF change in data set [3] (categorical) turned out to be 1. In addition, in data set [3] (setting [8]), the “EC10 TNF” value was 22.6 [drug]/Cmax and the “EC10 TNF/IFN” value was 18.9 [drug]/Cmax. Also, the Estimated probability in data set [5] is 0.9397.
As to `CN[C@H]1CC[C@@H](c2ccc(Cl)c(Cl)c2)c2ccccc21` [Sertraline], in data set [4], the True classification entry is given as “IDILI−” and the IDILI liability entry was “IDILI−”. For the same compound, in data set [1], the highest concentration (Cmax) is 0.06 µM. For the same compound, the R10 in data set [3] (drug alone (VEH)) was 0 [drug]/Cmax. Also, in data set [3], the “R10 IFN” value was 0 [drug]/Cmax, the “R10 TNF” value is 0 [drug]/Cmax, the “R10 TNF/IFN” value is 0 [drug]/Cmax and the Deltadiff was determined as 0. The Emax in data set [3] (setting [6]) was < 10%. For the same compound, in data set [3] (setting [7]), the Emax stood at 14%. Also, the TNF change in data set [3] (categorical) was found to be 0. In addition, the Estimated probability in data set [5] was 0.1275.
`Cc1onc(-c2c(F)cccc2Cl)c1C(=O)N[C@@H]1C(=O)N2[C@@H]1SC(C)(C)[C@@H]2C(=O)O` [Flucloxacillin]: in data set [4], the True classification entry is “IDILI+” and the IDILI liability result is “IDILI+”. Moreover, the “pattern of liver injury in humans” value in data set [4] (human patients) was “cholestatic rather than hepatocellular”. In addition, in data set [1], the highest concentration (Cmax) was 72.6 µM. Also, the R10 in data set [3] (drug alone (VEH)) was 0 [drug]/Cmax. Besides, in data set [3], the “R10 IFN” value is 0 [drug]/Cmax, the “R10 TNF” value was 0 [drug]/Cmax, the “R10 TNF/IFN” value is 0 [drug]/Cmax and the Deltadiff worked out at 0. In data set [3] (HepG2, 24 h), the “cytotoxic interaction of drug with TNF” value was “no statistically significant increase in LDH” and the “cytotoxicity of drug on its own” value is given as “no statistically significant increase in LDH”. For the same compound, the “synergy with cytokines to kill HepG2 cells” value in data set [3] (HepG2, 24 h, TNF and/or IFN) is on record as “did not synergize with cytokines to kill HepG2 cells”. In addition, in data set [3] (setting [6]), the Emax was < 10%. Also, the Emax in data set [3] (setting [7]) was 17.9%. Also, the TNF change in data set [3] (categorical) is recorded as 0. Moreover, the “calculated probability for association with IDILI” value in data set [5] (best-performing classification model) is recorded as 0.154. In addition, the “classification by the best-performing model” value in data set [5] (optimal cutoff) is reported as “incorrectly classified as not associated with IDILI”. Further, the Estimated probability in data set [5] is on record as 0.1545.
